Experimental data published in patent publication US7910624B1, “Compositions for the treatment of blood disorders” (The Trustees of Boston University, priority 1995, dated 2011).

Assays:
anemic juvenile baboons = assay: In vivo reticulocyte proliferation and globin expression in phlebotomized anemic baboons; design: species or system baboon
Experimental: Experiments were performed to determine if administration of the chemical compositions could induce fetal globin gene expression in an in vivo model similar to humans (S. P. Perrin et al., Brit. J. Haematol. 88:555-61, 1994). Briefly, chemicals were prepared as sterile pharmaceutical solutions in pH adjusted sterile water. A variety of chemical compositions were administered sequentially to some baboons. After administration of one compound, a wash-out period with no compound administration was maintained until reticulocytes returned to base line prior to administration of the next compound. This was done, at least partly, to compare the magnitude of response which occurred within the same individual animal to different compounds.
Briefly, juvenile female baboons (2 years old) were catheterized with arterial and venous catheters and phlebotomized gradually every day to maintain a moderate anemia of 7.0 to 7.5 grams hemoglobin/dl. Fetal reticulocytes, the newly produced red blood cells containing fetal globin, were assayed using a monoclonal antibody against fetal globin (HbF) as described by G. Dover et al. (Blood 67:735-38, 1986). Briefly, blood was stained with two antibodies, one specific for reticulocytes and another against fetal globin protein. The amount of antibody bound cells was determined by FACS analysis. Globin chain synthesis was assayed as described by J. B. Clegg et al. (J. Mol. Biol. 19:91-108, 1966). Briefly, reticulocytes were radio-labeled with ^3H-leucine which was incorporated in equal proportions into actively synthesized globin chains. After incubation in leucine-free media, cells were washed, and globin proteins were separated and purified by column chromatography. Radioactivity incorporated into each peak is compared and the ratios of gamma to gamma plus beta globin calculated. Each animal served as its own control with baseline monitoring assays performed for 4-6 weeks before any drug was administered. Phlebotomy was continued daily, so that peripheral HbF levels in the animals were not considered to be accurate over the short treatment time-frames and were not monitored. Safety monitoring was performed by frequent physical examinations, quantitation of food eaten, activity and frequent chemistry and hematology monitoring. Complete blood counts were assayed before, during and after treatment. Results presented were not adjusted to account for the daily phlebotomy.

[1] = test system: Human erythroleukemia cells; assay: Fetal globin mRNA in erythroleukemia cells by primer extension; format: cell-based; conditions: 1.0 mM, 4 days
Experimental: Compounds were tested for increased expression of the human globin genes in human erythroid cells. In addition, as the cell line being tested is a tumor cell line, the assay determines if differentiation, a growth inhibitory effect on cancer cells, is induced by the compounds tested. Human erythroleukemia cells were cultured in RPMI media with 10% fetal calf serum alone or with treatment with various compounds for 4 days. Globin mRNA was quantitated by primer extension analysis. Fetal globin mRNA was compared to the amount of fetal globin mRNA produced in untreated cells during the same culture period. The quantitation was expressed as a percent of alpha globin mRNA which was constant. Results are expressed proportional to α-globin mRNA (Table 3).

[2] = test system: erythroid progenitor cells cultured from human cord blood; assay: Fetal globin expression in human cell cultures (3H-leucine labelled globin chains, densitometry); format: cell-based; conditions: for Gamma Increase: Exp. B, 12-13 days
Experimental: Compositions were tested for activity in inducing fetal globin expression and protein production in erythroid progenitor cells cultured from human cord blood and analyzed as described by S. P. Perrine et al. (Blood 74: 454-60, 1989). Briefly, mononuclear cells were cultured in IMDM with 30% fetal calf serum and 2 units erythropoietin per ml to induce erythroid differentiation. Colonies were harvested on day 12-13, incubated with radio-labelled (^3H) leucine, and further incubated in leucine-free media, still in the presence of compounds, overnight. Globin composition in the erythroid cells was analyzed by laser densitometry of electrophoretically separated globin chains stained with Coomassie blue, and by autoradiography. Treated cells were incubated for 12-13 days (Table 2, Experiments A and B) or overnight (Table 2, Experiment C) in the presence of the indicated compounds and compared to untreated control cells cultured from the same human subject.

[3] = test system: proximal promoter of the gamma globin gene in K562 cells; assay: Gamma globin promoter-neomycin (NEO) transfection, colony survival in G418; format: cell-based, human; conditions: 1 mM, 8 weeks
Experimental: Gamma globin promoter-neomycin transfection experiments were performed to determine if compounds act by inducing an increase in activity from the proximal promoter of the gamma globin gene. Constructs containing 61 by of the proximal gamma globin promoter were linked to the reporter gene for neomycin phosphotransferase (NEO) and transfected into permissive K562 cells by electroporation. After 18 hours, transfected cells were passed at 10^3 cells per well into RPMI media containing G418 (neomycin), which kills all mammalian cells unless the gene for NEO is expressed. Phenoxyacetic acid and thiophenoxyacetic acid were added to some of the cells plated into the RPMI/G418 media at concentrations of 1 mM. Cultures were incubated for 8 weeks with media changes performed as needed. Colonies which survived and grew in the presence of G418 were scored and the number of such colonies was compared to those generated when the cells were plated into G418 media without the test compounds. No colonies in the 24 wells survived in the absence of compounds. There was a greater than 6-fold (>600%) increase in proportions of colonies surviving the presence of phenoxyacetic acid (6/24 wells) and a three-fold (300%) increase in survival in the presence of thiophenoxyacetic acid (3/24 wells).

[4] = test system: system A transport in K562 cells and nucleated erythroblasts from fetal liver; assay: System A (neutral amino acid) transport, 3H-MAIB uptake; format: cell-based, human; conditions: 1 hour incubation; FIG. 12
Experimental: Inhibition of nutrient uptake is undesirable for treatment of anemias. Methyl aminoisobutyric acid (MAIB) labeled with tritium (^3H) is normally taken up by system A amino acid transport. Cold (unlabeled) compounds were added to cultures containing ^3H-MAIB and incubated for 1 hour. Cells were harvested and the amount of ^3H taken up by cells was quantitated by scintillation counting.

## CCCC(=O)OCC(O)CO (stereo not shown) [MB, monobutyrin]
Anemic juvenile baboons; intravenous each day, 4 days, 500 to 2,000 mg/kg
  fetal reticulocytes above basal levels: 220%
Anemic juvenile baboons; intravenous each day, 4 days, 500 to 2,000 mg/kg, from 12%
  fetal reticulocytes after treatment: 27%
[1]
  induction of fetal globin mRNA in human cells: significantly increased
[1]; untreated 0.46
  Gamma/Alpha (fetal globin mRNA proportional to α-globin mRNA): 0.73
[1]; versus untreated
  Gamma Globin mRNA (increase ↑): 26% ↑

## CC(CO)C(N)=O (stereo not shown) [MHPP, 2 methyl-3-hydroxypropionamide, reference compound]
[2]; 0.05 mM
  Gamma Increase: 2.0%
[2]; 1.0 mM
  Gamma Increase: −3.5%
[2]; concentrations above 0.25 mM
  expression of fetal globin (FIG. 4): decreased the expression of fetal globin
[2]; concentrations below 0.25 mM
  expression of fetal globin (FIG. 4): increased fetal globin expression

## O=C(O)CSc1ccccc1 [thiophenoxyacetic acid]
[3]
  increase in proportions of colonies surviving G418: 300%
[3]; no colonies without compounds
  increase in proportions of colonies surviving G418: three-fold

## CCCC(=O)OCC(COC(=O)CCC)OC(=O)CCC [tributyrin]
Anemic juvenile baboons; intravenous 3 days, 500 to 750 mg/kg per day, from 0%
  gamma globin expression after treatment: about 2.2 % of total non-alpha globin expression
Anemic juvenile baboons; intravenous 3 days, 500 to 750 mg/kg per day, from 10%
  fetal reticulocytes after treatment: 14%

## CC(=Cc1ccccc1)C(=O)O [α-methyl cinnamic acid]
[4]
  system A transport of amino acids (3H-MAIB uptake): do not significantly alter

## CC(Cc1ccccc1)C(=O)O (stereo not drawn) [α-methyl hydrocinnamic acid]
Anemic juvenile baboons; baboon, infused 8 h/day, 5 days: 500 mg/kg 2 days, 700 mg/kg 2 days, 1,000 mg/kg 1 day, over 3 days
  rise of total hemoglobin: 1.5 grams/dl
Anemic juvenile baboons; same regimen (500/700/1,000 mg/kg, 5 days), rose from 2.28
  red blood cell count after treatment: 3.53 ×10^6 red blood cells per microliter
Anemic juvenile baboons; same regimen (500/700/1,000 mg/kg, 5 days), rose from 5.6%
  total number of reticulocytes after treatment: 11%
Anemic juvenile baboons; same regimen (500/700/1,000 mg/kg, 5 days), rose from 6.4
  total hemoglobin after treatment: 7.9 grams/dl
Anemic juvenile baboons; same regimen (500/700/1,000 mg/kg, 5 days), rose from 19.5%
  packed red blood cell volume after treatment: 31.2 % of total blood volume
Anemic juvenile baboons; same regimen (500/700/1,000 mg/kg, 5 days), rose from 26.7
  platelet count after treatment: 46.8 ×10^4 cells/μl
Anemic juvenile baboons; second baboon, 500 mg/kg 8 h, 700 mg/kg 8 h, 700 mg/kg 2, 4 and 6 h, after 5 days, from 4.0%
  total fetal globin synthesis after treatment: 10.8%
Anemic juvenile baboons; second baboon, 500-700 mg/kg, 5 days
  rise of total hemoglobin: 1.4 grams
Anemic juvenile baboons; second baboon, 500-700 mg/kg, 5 days, from 2.3×10^6
  red blood cell counts after treatment: 2.82×10^6
Anemic juvenile baboons; second baboon, 500-700 mg/kg, 5 days, from 4.6
  total hemoglobin after treatment: 6.0 g/dL
Anemic juvenile baboons; second baboon, 500-700 mg/kg, 5 days, from 14.5%
  packed red blood cell volume after treatment: 20.2%
Anemic juvenile baboons; second baboon, 500-700 mg/kg, 5 days, from 8,700
  white blood cell counts, maximum: 14,300
Anemic juvenile baboons; second baboon, 500-700 mg/kg, 5 days, from 328,000
  platelet counts, high: 486,000
Anemic juvenile baboons; third baboon, 5 days
  adverse effects: No adverse affects were observed
Anemic juvenile baboons; third baboon, after 5 days, from 0%
  fetal globin protein synthesis after treatment: 6.2 % of non-alpha globin
Anemic juvenile baboons; third baboon, same dose, after 5 days (FIG. 8), from 0%
  fetal hemoglobin producing reticulocytes after treatment: 10%
[4]
  system A transport of amino acids (3H-MAIB uptake): caused no significant inhibition and actually increased uptake of nutrients into cells
